Patent US5384411A, “Immobilization of PH-sensitive dyes to solid supports” (Hewlett-Packard Company, priority 1991, dated 1995)
Each block holds one compound with its values, some of them ahead of it.

Key:
Assay type in all cases: physicochemical
[1] = pKa and pH dye properties of amino-phenolphthaleins bound to Sepharose 6B; conditions: dye bound to Sepharose 6B
Description: The amino-phenolphthaleins of Examples 2A-2E were reacted with a solid support by the following general procedure:
Place 0.5 g of Sepharose 6B (commercially available from Pharmacia Inc., Piscataway, N.J. as order number 17-0480-01) into deionized water for 30-45 min. to swell. Collect the white gel. In reaction beaker, place 0.3-0.5 g of an appropriate amino-phthalein into 3 ml dioxane and 20 ml of carbonate buffer (pH 10.5). Add the gel and let sit at 35° for 20 hrs. Collect the gel on a glass frit and wash with water, ethanol, acetone and high and low pH buffers. Dialyze the gel against deionized water for 2 days.

[2] = pKa and color change with pH of carboxy-phenolphthaleins bound to Sepharose 4B; conditions: dye bound to Sepharose 4B
Description: Place 0.5 g of Sepharose 4B (commercially available from Pharmacia Inc., Piscataway, N.J. as order number 17-0470-01) in 0.5M NaCl for 1 hour and then collect and set aside. Place the appropriate carboxy-phenolphthalein (1.3 mmol) in about 1 ml dimethylformamide and cool to 0° C. in a ice-ethanol bath. […] Leave the reaction at this cold temperature for 15-20 minutes. Then add the Sepharose 4B gel to reaction along with a scoop of benzyltributyl ammonium bromide and 30 ml of borate buffer (pH 9). Place the reaction flask on a shaker overnight at room temperature. Collect the support on a frit and wash with volumes of water, ethanol, acetone and buffered water. Finally, dialyze the support against water for 1-2 days.

[3] = pKa of carboxy-sulfonephthaleins bound to aminoethyl cellulose; conditions: dye bound to aminoethyl cellulose
Description: The carboxy-sulfonephthaleins of Examples 8A-8C were reacted with a solid support by the following general procedure:
Place 0.5 g aminoethyl cellulose (commercially available from Serva Biochemicals, Westbury, N.Y. 11590 as order no. 45015) in 30 ml of deionized water and set aside. Place 0.2 g of an appropriate dye in 25 ml of pyridine-HCl buffer (pH 5.8). Add the filtered cellulose to this reaction along with 83 mg of N-ethyl-N'-(3-dimethylaminopropyl)carbodimidehydrochloride (EDC). Place the reaction on a shaker overnight at room temperature. Collect the support and wash with large volumes of water, ethanol, acetone, DMF and pH buffers over the course of 2 days. Collect a final colored support. Also, this same procedure was run using aminopropyl silica beads (Serva #43660) in place of cellulose.
The pKa 's of the carboxy-sulfonephenolphthaleins bound to the solid support (aminoethyl cellulose) was determined and are set forth in Table 4 below: […]

pKa [2]: 10
Compound: O=C(O)c1ccc2c(c1)C(=O)OC2(c1ccc(O)cc1)c1ccc(O)cc1 [Example 4A]

pKa [2]: > 10
Compound: O=C(O)c1ccc2c(c1)C(=O)OC2(c1ccc(O)c2ccccc12)c1ccc(O)c2ccccc12 [Example 4E]

pKa [2]: ~ 7
Compound: O=C(O)c1ccc2c(c1)C(=O)OC2(c1ccc(O)c(O)c1)c1ccc(O)c(O)c1 [Example 4I]

pKa [3]: 7.6
Compound: O=C(O)c1ccc2c(c1)S(=O)(=O)OC2(c1ccc(O)cc1)c1ccc(O)cc1 [Example 8A]

pKa [3]: 6.2
Compound: O=C(O)c1ccc2c(c1)S(=O)(=O)OC2(c1ccc(O)c(Cl)c1)c1ccc(O)c(Cl)c1 [Example 8B]

pKa [3]: 9.2
Compound: Cc1cc(O)c(C(C)C)cc1C1(c2cc(C(C)C)c(O)cc2C)OS(=O)(=O)c2cc(C(=O)O)ccc21 [Example 8C]

Further lines, the compound ahead of its results:

Compound: Nc1cccc2c1C(=O)OC2(c1ccc(O)cc1)c1ccc(O)cc1 [Example 2A]
pKa [1]: approximately 10

Compound: Cc1cc(C2(c3cc(C)c(O)cc3C)OC(=O)c3c(N)cccc32)c(C)cc1O [Example 2B]
pKa [1]: ~12

Compound: Nc1cccc2c1C(=O)OC2(c1ccc(O)c(Br)c1)c1ccc(O)c(Br)c1 [Example 2C]
retention of dye properties after coupling [1]: no longer retained their dye properties

Compound: Nc1cccc2c1C(=O)OC2(c1ccc(O)c(Cl)c1)c1ccc(O)c(Cl)c1 [Example 2D]
retention of dye properties after coupling [1]: no longer retained their dye properties

Compound: O=C(O)c1ccc2c(c1)C(=O)OC2(c1cc([N+](=O)[O-])c(O)cc1[N+](=O)[O-])c1cc([N+](=O)[O-])c(O)cc1[N+](=O)[O-] [Example 4G]
pKa [2]: ~ 4

Compound: O=C(O)c1ccc2c(c1)C(=O)OC2(c1cc(Cl)c(O)c([N+](=O)[O-])c1)c1cc(Cl)c(O)c([N+](=O)[O-])c1 [Example 4H]
pKa [2]: ~ 5.5

Compound: O=C(O)c1ccc2c(c1)C(=O)OC2(c1cc(O)c(O)cc1[N+](=O)[O-])c1cc(O)c(O)cc1[N+](=O)[O-] [Example 4J]
pKa [2]: ~ 6
